This is an account of results in article PMC5107130 (Pharmacological Research, 2016).

Data set [1] concerns HCT116 cells. Kind of data set: Cell proliferation, xCELLigence system. In kind it is cell-based, human. The note with it: Cell Index, 48 h, concentration in the value.
For data set [2], the system named is HCT116 cells. Kind of data set: Mitochondrial function, MTT assay. It counts as cell-based, human. Particulars: 48 h.
Data set [3] relates to HCT116 cells. Kind of data set: Cytotoxicity, lactate dehydrogenase. Particulars: 48 h. In kind it is cell-based, human.
Data set [4] addresses T1, Recombinant full length human CBS (Homo sapiens, UniProt P35520).
T1 sequence (P35520 1-551): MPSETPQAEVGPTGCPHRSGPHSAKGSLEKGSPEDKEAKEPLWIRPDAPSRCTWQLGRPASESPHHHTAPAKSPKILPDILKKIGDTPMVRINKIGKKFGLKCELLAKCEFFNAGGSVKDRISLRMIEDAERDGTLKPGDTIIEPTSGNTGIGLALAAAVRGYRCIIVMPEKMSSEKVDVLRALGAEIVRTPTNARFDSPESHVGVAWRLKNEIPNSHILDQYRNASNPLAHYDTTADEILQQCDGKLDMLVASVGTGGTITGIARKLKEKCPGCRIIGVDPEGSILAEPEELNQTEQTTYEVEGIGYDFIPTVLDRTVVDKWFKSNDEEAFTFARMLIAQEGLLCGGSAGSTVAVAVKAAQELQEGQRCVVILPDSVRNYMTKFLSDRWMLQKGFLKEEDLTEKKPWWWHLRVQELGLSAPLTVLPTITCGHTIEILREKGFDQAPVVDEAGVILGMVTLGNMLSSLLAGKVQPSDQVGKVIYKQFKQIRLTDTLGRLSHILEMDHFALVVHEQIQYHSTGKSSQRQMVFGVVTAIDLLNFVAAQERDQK
Kind of data set: AzMC fluorescence assay of CBS-derived H2S production. It counts as biochemical. Particulars: for % inhibition of CBS-induced AzMC fluorescence: copper compounds, mean ± SEM, n = 3.

The nature of data set [5]: Counterscreen: AzMC fluorescence signal generated by the H2S donor GYY4137. The note with it: for % inhibition of GYY4137-induced AzMC fluorescence / Confirmation (% inhibition of GYY4137-induced AzMC fluorescence): mean ± SEM, n = 3. In general terms: A counterscreen serves to expose hits that act by an unwanted route or on another target.
The subject of data set [6] is CBS. Particulars: cited from earlier work; for % inhibition of CBS activity: 1 mM.
For data set [7], the target named is T1, Recombinant full length human CBS. The data set is described as follows: Methylene blue assay of CBS-derived H2S. In kind it is biochemical. The note with it: read-out: % inhibition of CBS-induced methylene blue signal.
For data set [8], the system named is CSE. Particulars: cited from earlier work.
[9] abbreviates: read-out: % inhibition of CBS-induced AzMC fluorescence, 10 μM, mean ± SEM, n = 3.
Setting [10] is: read-out: % inhibition of CBS-induced AzMC fluorescence, 100 μM, mean ± SEM, n = 3.
Setting [11] is: read-out: Confirmation (% inhibition of CBS-induced AzMC fluorescence), 30 μM, mean ± SEM, n = 3.
Setting [12] is: read-out: Initial screen (% inhibition of CBS-induced AzMC fluorescence), 30 μM.
Setting [13] is: read-out: % inhibition of CBS-induced AzMC fluorescence.

“Also recorded” adds a separate entry of the source. Like-named read-outs stand apart in the source and are kept apart here.

As for `NNCc1ccc(O)c(O)c1O` [2,3,4-trihydroxybenzylhydrazine], in data set [1], the “Effect on HCT116 cell proliferation (words)” value (shortened to “Effect”) is recorded as “inhibited HCT116 cell proliferation in vitro at 10–300 μM”. In addition, in data set [2], the “MTT conversion in HCT116 cells” value is given as “reduced MTT conversion at 300 μM”. Moreover, the “Cytotoxicity / LDH release in HCT116 cells” value (“Cytotoxicity / LDH release” below) in data set [3] is “did not exert cytotoxic effects”. Moreover, in data set [4] (read-out: % inhibition of recombinant CBS activity, 30 μM, standard assay conditions), the inhibition (usually how much of the control response was suppressed) at 30 µM turned out to be 51 ± 2%. In data set [4] (read-out: % inhibition of recombinant CBS activity, 100 μM, standard assay conditions, freshly dissolved), the inhibition at 100 µM worked out at 82%.
Regarding `[Cl][Cu][Cl]` [CuCl2, copper(II) chloride], the “Effect” value is “only inhibited HCT116 cells proliferation at the highest concentration tested (1 mM)” in data set [1] and “up to 300 μM, did not inhibit HCT116 cell proliferation” in data set [1] (listed as copper ions). Further, the “MTT conversion in HCT116 cells” value in data set [2] is listed as “decreased MTT conversion”. Moreover, the “% inhibition of GYY4137-induced AzMC fluorescence” value in data set [5] (copper compounds, 0.1 μM) amounted to 1 ± 1%; in data set [5] (copper compounds, 0.3 μM), 10 ± 1%; in data set [5] (copper compounds, 1 μM), 14 ± 1%. Further, in data set [3], the “Cytotoxicity / LDH release” value is “paradoxical reduction in LDH activity”. Further, the results for the “% inhibition of CBS-induced AzMC fluorescence” value in data set [4] (0.1 μM), in data set [4] (0.3 μM) and in data set [4] (1 μM) were 36 ± 1%, 60 ± 2% and 90 ± 1%, respectively. Also, in data set [4] (read-out: IC50, inhibition of recombinant CBS (CBS-induced AzMC fluorescence), cell-free, 2 mM L-cysteine and homocysteine), the IC50 (commonly the concentration needed to halve the response being measured) is roughly 0.2 µM.
As to `N[C@@H]1CON=C1O` [D-cycloserine], in data set [6], the “% inhibition of CBS activity” value is recorded as 15–20%.
`Oc1c(Cl)cc(Cl)c(Cl)c1Cc1c(O)c(Cl)cc(Cl)c1Cl.Oc1c(Cl)cc(Cl)c(Cl)c1Cc1c(O)c(Cl)cc(Cl)c1Cl` [Hexachlorophene, 2,2′-methylenebis(3,4,6-trichlorophenol)-3,4,6-trichloro-2-[(2,3,5-trichloro-6-hydroxyphenyl)methyl]phenol]: the “Effect” value in data set [1] is given as “did not affect HCT116 proliferation up to 3 μM; also recorded: fully inhibited cell proliferation at 10 μM; also recorded: inhibits HCT116 proliferation at fairly low concentrations (10 μM)”. The “% inhibition of GYY4137-induced AzMC fluorescence” value in data set [5] (10 μM) was −4 ± 2%; in data set [5] (100 μM) it was −2 ± 1%. The “Confirmation (% inhibition of GYY4137-induced AzMC fluorescence)” value in data set [5] (30 μM) stood at 1 ± 1%. In addition, the values for the inhibition at 10 µM in data set [7] and in data set [4] (setting [9]) were 21 ± 1% and 3 ± 1%, respectively. The inhibition at 30 µM came to 31 ± 1% in data set [7], 12 ± 1% in data set [4] (setting [11]) and 48% in data set [4] (setting [12]). The inhibition at 100 µM in data set [7] came out at 64 ± 1%; in data set [4] (setting [10]), 70 ± 1%. The “Cytotoxicity / LDH release” value in data set [3] was “exerted cytotoxic effects”. Besides, the IC50 in data set [4] is roughly 60 µM.
`Cn1ncnc2c(=O)n(C)c(=O)nc1-2` [NSC67078, 1,6-dimethyl-pyrimido[5,4-e]-1,2,4-triazine-5,7(1H,6H)-dione]: in data set [8], the “Potency of CSE inhibition relative to CBS inhibition (fold lower)” value is reported as 3 fold. Moreover, the “MTT conversion in HCT116 cells” value in data set [2] is “suppression of MTT conversion”. The “% inhibition of GYY4137-induced AzMC fluorescence” value in data set [5] (1 μM) worked out at 25 ± 1%; in data set [5] (10 μM), 65 ± 1%; in data set [5] (30 μM), 78 ± 1%. Also, the 50% inhibitory concentration (IC50) in data set [5] (read-out: IC50, inhibition of GYY4137-induced AzMC fluorescence, scavenging/non-specific effects) was roughly 6 µM; in data set [4] it was roughly 1 µM. The inhibition at 1 µM was 59 ± 2% in data set [7] and 47 ± 1% in data set [4] (setting [13]). Also, the inhibition at 10 µM in data set [7] stood at 73 ± 1%; in data set [4] (setting [13]), 88 ± 1%. Also, the inhibition at 30 µM turned out to be 95 ± 1% in data set [7] and 93 ± 1% in data set [4] (setting [13]).
For `C#CCC(N)C(=O)O` (stereo not drawn) [PAG], the “CBS inhibition” value in data set [6] was “is not an inhibitor of CBS”.
Take `O=C(OC[C@H]1O[C@@H](OC(=O)c2cc(O)c(O)c(OC(=O)c3cc(O)c(O)c(O)c3)c2)[C@H](OC(=O)c2cc(O)c(O)c(OC(=O)c3cc(O)c(O)c(O)c3)c2)[C@@H](OC(=O)c2cc(O)c(O)c(OC(=O)c3cc(O)c(O)c(O)c3)c2)[C@@H]1OC(=O)c1cc(O)c(O)c(OC(=O)c2cc(O)c(O)c(O)c2)c1)c1cc(O)c(O)c(OC(=O)c2cc(O)c(O)c(O)c2)c1` [Tannic acid, 2,3-dihydroxy-5-({[(2R,3R,4S,5R,6R)-3,4,5,6-tetrakis({3,4-dihydroxy-5-[(3,4,5-trihydroxyphenyl)carbonyloxy]phenyl}carbonyloxy)oxan-2-yl]methoxy}carbonyl)phenyl 3,4,5-trihydroxybenzoate]: the “Effect” value in data set [1] is given as “concentration-dependently inhibited proliferation, starting with 10 μM; also recorded: complete inhibition was seen at 100 μM”. Moreover, the “% inhibition of GYY4137-induced AzMC fluorescence” value in data set [5] (10 μM) is reported as −1 ± 1%; in data set [5] (30 μM), 3 ± 2%; in data set [5] (100 μM), 8 ± 3%. For the same molecule, the “Confirmation (% inhibition of GYY4137-induced AzMC fluorescence)” value in data set [5] (30 μM) stood at 3 ± 2%. The inhibition at 10 µM in data set [7] stood at 24 ± 9%; in data set [4] (setting [9]), 28 ± 2%. The inhibition at 30 µM in data set [7] is 46 ± 3%; in data set [4] (read-out: % inhibition of CBS-induced AzMC fluorescence, 30 μM, mean ± SEM, n = 3) it was 43 ± 1%; in data set [4] (setting [11]), 43 ± 1%; in data set [4] (setting [12]) it was 73%. For the same molecule, the inhibition at 100 µM in data set [7] is 56 ± 3%; in data set [4] (setting [10]) it was 75 ± 1%. The “Cytotoxicity / LDH release” value in data set [3] is on record as “without signs of cytotoxicity”. In addition, the 50% inhibitory concentration (IC50) in data set [4] is roughly 40 µM.
Regarding `NNC(=O)c1ccncc1` [isoniazid], the “% inhibition of CBS activity” value in data set [6] was 15–20%.
